From patent publication US20060234990A1, “Compositions of boswellic acids derived from Boswellia serrata gum resin, for treating lymphoproliferative and autoimmune conditions” (SAMI LABS LTD., priority 2000, published 2006)

Experiments:
HL-60 cells [1] = assay: DNA synthesis ([3H]thymidine incorporation) in HL-60 cells; assay type: cell-based; conditions: Homo sapiens; cultured HL-60 cells incubated for 2 hours; read-out: 50% inhibitory activity on the incorporation of [3H]-thymidine into DNA
From the text: (§1) FIGS. 1, 2, and 3 show the inhibitory effects of compounds I-IV on the DNA, RNA and protein synthesis of HL-60 cells, respectively (in FIG. 1-3, lines 1, 2, 3 and 4 refer to the data of compounds I, II, III and IV, respectively). Tables 1 and 2 show the inhibitory effect of a “total organic acids” extract of the exudate of Boswellia serrata on DNA, RNA and protein synthesis or growth in HL-60 cells. […] The initial rates of incorporation of [^3H]-thymidine, [^3H]-uridine and [^3H]-leucine into trichloroacetic acid (TCA)-insoluble material were utilized to estimate the rates of DNA, RNA, and protein synthesis, respectively, in HL-60 cells. […] the inhibitory effects of compounds I-IV and the alcoholic extract on DNA. RNA and protein synthesis of HL-60 cells were in a dose-dependent manner. […] 0.9 and 0.6 μM, respectively, the incorporation of [3H]-uridine at concentrations of 7.1, 2.3. 2.2 and 0.5 μM, respectively, and the incorporation of [3H]-leucine into protein at concentrations of 6.3, 5.4, 5.1 and 4.1 μM, respectively, in cultured HL-60 cells incubated for 2 hours.
(§2) Various concentrations of the Boswellia serrata extract, as indicated above, were added to 1 mL of HL-60 cells suspended in RPMI medium. [^3H]thymidine (50 μCi/μmol: […]), [^3H]uridine (55 μCi/μmol; 5 μL), [^3H]leucine (200 μCi/μmol: 10 μL), were added to the cell suspension and incubated at 37° C. for 120 min. Reactions were terminated by addition of 3 mL of cold PBS, and the rates of DNA. RNA, and protein synthesis were determined.
[^3H]Thymidine (3 μL; 50 μCi/μmol), vehicle or various concentrations of BSE in vehicle were added to 1 mL of HL-60 cells (5×10^5 cells/mL) in culture, and the cultures were incubated at 37° C. for 120 min. Data are expressed as the mean±SE calculated from triplicate studies. Data in parentheses are the percent inhibition of [^3H]thymidine incorporation into the DNA of HL-60 cells.

HL-60 cells [2] = assay: RNA synthesis ([3H]uridine incorporation) in HL-60 cells; assay type: cell-based; conditions: Homo sapiens; cultured HL-60 cells incubated for 2 hours; read-out: 50% inhibitory activity on the incorporation of [3H]-uridine
From the text: as §1, §2

HL-60 cells [3] = assay: Protein synthesis ([3H]leucine incorporation) in HL-60 cells; assay type: cell-based; conditions: Homo sapiens; cultured HL-60 cells incubated for 2 hours; read-out: 50% inhibitory activity on the incorporation of [3H]-leucine into protein
From the text: as §1, §2

HL-60 cells [4] = assay: Cellular growth of HL-60 cells in culture; assay type: cell-based; conditions: Homo sapiens, HL-60, 96 h, 37° C., 4 days
Description: (§3) The effect of compound IV on cellular growth of HL-60 cells was tested. […] In order to test whether this growth was the result of cell cytotoxicity, the effects of this compound on cell viability were examined after 4 days incubation using the trypan blue exclusion method. The cells viability at concentrations of 0, 1, 4, 16 μM were 97.0, 96.8, 96.5, or 96.7%, respectively.
Various concentrations of BSE, as indicated above, were added to the HL-60 cell cultures. These cultures were counted daily using a hemacytometer under a microscope with 10× magnification every 24 hours. Data are expressed as the mean=SE calculated from triplicate studies. Data in parentheses are the percent inhibition of cell growth.

[5] = Cell viability of HL-60 cells, trypan blue exclusion method; assay type: cell-based; conditions: human, 4 days incubation
Description: as §3

HL-60 cells [6] = assay: Reversibility of DNA synthesis inhibition after preincubation and washing; assay type: cell-based, human; conditions: preincubated at 2 and 8 μM for 30 min at 37° C., washed with PBS
Description: In this experiment HL-60 cells were preincubated with compound IV at 2 and 8 μM for 30 min at 37° C., washed with phosphate buffer saline and [3H]-thymidine was added to the culture. At desired times, the reactions were terminated and the rates of DNA synthesis were determined.

human leukocyte elastase = target: T1, human leukocyte elastase (Homo sapiens, UniProt P08246); conditions: in vitro; Safayhi et al (1997); cited from earlier work
T1 sequence (P08246 30-267): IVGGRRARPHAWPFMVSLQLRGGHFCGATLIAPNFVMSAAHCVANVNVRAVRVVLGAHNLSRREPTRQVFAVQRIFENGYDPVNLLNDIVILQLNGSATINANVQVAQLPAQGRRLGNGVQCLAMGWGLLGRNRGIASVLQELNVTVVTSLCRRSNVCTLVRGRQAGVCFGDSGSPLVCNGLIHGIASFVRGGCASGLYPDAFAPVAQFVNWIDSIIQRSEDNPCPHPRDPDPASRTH

IC50 (HL-60 cells [1]) | IC50 (HL-60 cells [2]) | IC50 (HL-60 cells [3]) | Compound | inhibition at 1 µM (HL-60 cells [4]; 1 μM) | inhibition at 4 µM (HL-60 cells [4]; 4 μM) | inhibition at 16 µM (HL-60 cells [4]; 16 μM) | viability at 4 days, 1 µM ([5]; 1 μM) | viability at 4 days, 4 µM ([5]; 4 μM) | viability at 4 days, 16 µM ([5]; 16 μM) | inhibitory action on DNA synthesis after washing (HL-60 cells [6]) | IC50 (human leukocyte elastase)
0.9 µM | 2.2 µM | 5.1 µM | CC1CCC2(C)CCC3(C)C(=CC(=O)C4(C)C3CCC3C(C)(C(=O)O)C(O)CCC34C)C2C1C (stereo not drawn) [III, 11-keto-β-Boswellic Acid] | – | – | – | – | – | – | – | –
1.4 µM | 2.3 µM | 5.4 µM | CC(=O)OC1CCC2(C)C(CCC3C4(C)CCC5(C)CCC(C)C(C)C5C4=CCC32C)C1(C)C(=O)O (stereo not drawn) [II, Acetyl-β-Boswellic Acid] | – | – | – | – | – | – | – | –
0.6 µM | 0.5 µM | 4.1 µM | CC(=O)OC1CCC2(C)C(CCC3C4(C)CCC5(C)CCC(C)C(C)C5C4=CC(=O)C32C)C1(C)C(=O)O (stereo not drawn) [IV, Acetyl-11-keto-β-Boswellic Acid] | 54.5% | 71.8% | 98.6% | 96.8% | 96.5% | 96.7% | irreversible | ~15 µM
3.7 µM | 7.1 µM | 6.3 µM | CC1CCC2(C)CCC3(C)C(=CCC4(C)C3CCC3C(C)(C(=O)O)C(O)CCC34C)C2C1C (stereo not drawn) [I, β-Boswellic Acid] | – | – | – | – | – | – | – | –
